In the supplement of paper PMC10307832:

Assays:
Experiment in all cases: relative viability (nuclei count vs DMSO), 5 days (fraction); higher = more cells survive
Vismodegib + Linsitinib = compound: CS(=O)(=O)c1ccc(C(=O)Nc2ccc(Cl)c(-c3ccccn3)c2)c(Cl)c1 [Vismodegib] + C[C@]1(O)C[C@@H](c2nc(-c3ccc4ccc(-c5ccccc5)nc4c3)c3c(N)nccn32)C1 [Linsitinib] (partner 1 µM)
How it was run: (§1)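 Lung cancer cell lines were seeded in 1536-well plates and dosed by pin tool the next day, with either a single drug or a fixed anchor-drug dose combined with five library-drug doses (not always all listed) spaced in √10 steps. Five days later, one step fixed the cells and stained their nuclei (final 0.05% Triton X-100, 1% formaldehyde, 1 ug/ml Hoechst), and nuclei were counted on 4× images. Relative viability is the nuclei count in treated wells divided by the count in vehicle wells, and each value is the median of duplicate plates.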

Vismodegib + Palbociclib = compound: CS(=O)(=O)c1ccc(C(=O)Nc2ccc(Cl)c(-c3ccccn3)c2)c(Cl)c1 [Vismodegib] + CC(=O)c1c(C)c2cnc(Nc3ccc(N4CCNCC4)cn3)nc2n(C2CCCC2)c1=O [Palbociclib] (partner 0.5 µM)
How it was run: as §1

Ruxolitinib + Linsitinib = compound: N#CC[C@H](C1CCCC1)n1cc(-c2ncnc3[nH]ccc23)cn1 [Ruxolitinib] + C[C@]1(O)C[C@@H](c2nc(-c3ccc4ccc(-c5ccccc5)nc4c3)c3c(N)nccn32)C1 [Linsitinib] (partner 1 µM)
How it was run: as §1

Vismodegib + Vorinostat = compound: CS(=O)(=O)c1ccc(C(=O)Nc2ccc(Cl)c(-c3ccccn3)c2)c(Cl)c1 [Vismodegib] + O=C(CCCCCCC(=O)Nc1ccccc1)NO [Vorinostat] (partner 1 µM)
How it was run: as §1

Cell Line | relative viability (Vismodegib + Linsitinib; first compound 0.08 µM) | relative viability (Vismodegib + Linsitinib; first compound 0.253 µM) | relative viability (Vismodegib + Linsitinib; first compound 0.8 µM) | relative viability (Vismodegib + Linsitinib; first compound 2.53 µM) | relative viability (Vismodegib + Linsitinib; first compound 8 µM) | relative viability (Vismodegib + Palbociclib; first compound 0.08 µM) | relative viability (Vismodegib + Palbociclib; first compound 0.253 µM) | relative viability (Vismodegib + Palbociclib; first compound 0.8 µM) | relative viability (Vismodegib + Palbociclib; first compound 2.53 µM) | relative viability (Vismodegib + Palbociclib; first compound 8 µM) | relative viability (Ruxolitinib + Linsitinib; first compound 0.08 µM) | relative viability (Ruxolitinib + Linsitinib; first compound 0.253 µM) | relative viability (Ruxolitinib + Linsitinib; first compound 0.8 µM) | relative viability (Ruxolitinib + Linsitinib; first compound 2.53 µM) | relative viability (Ruxolitinib + Linsitinib; first compound 8 µM) | relative viability (Vismodegib + Vorinostat; first compound 0.08 µM) | relative viability (Vismodegib + Vorinostat; first compound 0.253 µM) | relative viability (Vismodegib + Vorinostat; first compound 0.8 µM) | relative viability (Vismodegib + Vorinostat; first compound 2.53 µM) | relative viability (Vismodegib + Vorinostat; first compound 8 µM)
NCI-H358 | 0.777 | 0.667 | 0.712 | 0.817 | 0.765 | 0.141 | 0.181 | 0.138 | 0.135 | 0.16 | 0.716 | 0.629 | 0.803 | 0.514 | 0.544 | 0.831 | 0.677 | 0.696 | 0.68 | 0.728
NCI-H1793 | – | 0.701 | 0.903 | 1.04 | 0.824 | – | 0.295 | 0.345 | 0.321 | 0.422 | 0.632 | 0.92 | 1.04 | 1.12 | 0.968 | – | 0.717 | 0.733 | 0.734 | 0.748
HCC-78 | 0.474 | 0.477 | 0.406 | 0.588 | 0.488 | 0.535 | 0.505 | 0.483 | 0.44 | 0.488 | 0.419 | 0.296 | 0.437 | 0.372 | 0.414 | 0.425 | 0.403 | 0.453 | 0.492 | 0.42
LCLC-97TM1 | – | – | 0.174 | – | 0.211 | 0.202 | 0.208 | 0.263 | 0.203 | 0.213 | 0.195 | 0.151 | 0.189 | 0.22 | 0.219 | 0.731 | 0.64 | 0.656 | 0.632 | 0.42
NCI-H661 | 0.5 | 0.497 | 0.575 | 0.522 | 0.579 | 0.446 | 0.432 | 0.439 | 0.39 | 0.405 | 0.598 | 0.639 | 0.708 | 0.498 | 0.591 | 0.785 | 0.768 | 0.841 | 0.737 | 0.763
NCI-H1944 | 1.15 | 1.33 | 1.16 | 1.19 | 1.2 | 0.292 | 0.324 | 0.326 | – | 0.379 | 1.23 | 1.12 | 1.28 | 1.15 | 1.21 | 0.592 | 0.522 | 0.735 | – | 0.568
SW 1573 | 0.823 | 0.728 | 0.789 | 0.64 | 0.821 | 0.395 | 0.398 | 0.363 | 0.406 | 0.451 | 0.948 | 0.669 | 0.848 | 0.707 | 0.534 | 0.77 | 0.564 | 0.895 | 0.636 | 0.679
NCI-H1975 | 0.87 | 0.919 | 0.975 | 0.908 | 0.977 | 0.666 | 0.521 | 0.662 | 0.542 | 0.559 | 1.03 | 1.03 | 1.05 | 0.71 | 0.587 | 0.63 | 0.683 | 0.738 | 0.744 | 0.687
EPLC-272H | 1.24 | 1.18 | 0.986 | 1.04 | 1.1 | 0.307 | 0.305 | 0.355 | 0.342 | 0.311 | 1.26 | 1.12 | 1.31 | 1.19 | 1.25 | 0.398 | 0.368 | 0.49 | 0.329 | 0.509
EMC-BAC-2 | 0.785 | 0.803 | 0.914 | 0.776 | 0.82 | 0.508 | 0.498 | 0.516 | 0.508 | 0.546 | 0.799 | 0.822 | 0.87 | 0.744 | 0.66 | 0.515 | 0.302 | 0.418 | 0.476 | 0.422
PC-3 [JPC-3] | 0.934 | 0.941 | 1.04 | 0.988 | 0.933 | 0.522 | 0.547 | 0.511 | 0.506 | 0.572 | 0.882 | 0.973 | 0.973 | 0.963 | 0.872 | 0.858 | 0.548 | 0.802 | 0.924 | 0.896
NCI-H1666 | 0.877 | 0.871 | 0.69 | 0.773 | 0.967 | 0.634 | 0.678 | 0.637 | 0.624 | 0.691 | 0.739 | 0.949 | 0.933 | 0.776 | 0.902 | 1.04 | 0.957 | 1 | 1.01 | 1.06
NCI-H1915 | 1.11 | 1.15 | 1.06 | 1.1 | 1.1 | 0.499 | 0.483 | 0.549 | 0.53 | 0.53 | 1.12 | 1.05 | 1.05 | 1.04 | 1.03 | 0.491 | 0.488 | 0.497 | 0.434 | 0.534
HCC-15 | 0.896 | 0.876 | 0.834 | 1.01 | 0.897 | 0.718 | 0.715 | 0.794 | 0.838 | 0.738 | 0.855 | 0.849 | 0.855 | 0.842 | 0.737 | 0.844 | 0.774 | 0.86 | 0.781 | 0.859
EKVX | 0.949 | 1.04 | 0.929 | 0.894 | 0.989 | – | 0.38 | 0.392 | 0.325 | 0.433 | 0.876 | 0.897 | 0.966 | 0.893 | 0.813 | 0.77 | 0.752 | 0.802 | 0.907 | 0.655
PC-14 | 0.897 | 0.911 | 0.982 | 0.899 | 0.998 | 0.494 | 0.492 | 0.614 | 0.587 | 0.621 | – | 0.959 | 1.04 | 0.794 | 0.69 | 0.682 | 0.773 | 0.764 | 0.838 | 0.749
NCI-H650 | 0.868 | 0.799 | 0.679 | 0.994 | 0.949 | 0.359 | 0.323 | 0.309 | 0.338 | 0.341 | – | 0.795 | 1.11 | 0.677 | 0.55 | 0.434 | 0.413 | 0.353 | 0.392 | 0.488
